Species on record: Rattus norvegicus
Assay: Open TG-GATES - Regimen: Single
Format: toxicity, organism-based, Sprague-Dawley
Parameters: regimen Single, gender Male, age 6 weeks
Conditions: in vivo, po, 0 mg/kg, route gavage, dose level Control; for APTT / Bas / Eos / Fbg / Hb / Ht / Lym / MCH / MCHC / MCV / Mono / Neu / PT / Plat / RBC / Ret / WBC: tissue Blood; for KIDNEY_L / KIDNEY_R / KIDNEY_TOTAL: tissue Kidney; for LIVER: tissue Liver; for ALP / ALT / AST / CRE / DBIL / GLC / IP / K / LDH / Na / PL / RALB / TBIL / TC / TG / TP / gamma-GTP: tissue Plasma

SMILES: CC(C)Cc1ccc(C(C)C(=O)O)cc1 (centres undefined) [IBUPROFEN]
- TERMINAL_BW (3 h): 204.9 g
- APTT (3 h): 21.3 s
- Bas (3 h): 0%
- Eos (3 h): 1%
- Fbg (3 h): 277 mg/dL
- Hb (3 h): 13.2 g/dL
- Ht (3 h): 38.4%
- Lym (3 h): 72.8%
- MCH (3 h): 21.5 pg
- MCHC (3 h): 34.3%
- MCV (3 h): 62.7 fL
- Mono (3 h): 2%
- Neu (3 h): 23.6%
- PT (3 h): 15.8 s
- Plat (3 h): 113 x10_4/uL
- RBC (3 h): 612.8 x10_4/ul
- Ret (3 h): 7.9%
- WBC (3 h): 79.6 x10_2/uL
- KIDNEY_L (3 h): 0.9 g
- KIDNEY_R (3 h): 1 g
- KIDNEY_TOTAL (3 h): 1.9 g
- LIVER (3 h): 9.3 g
- ALP (3 h): 1578.8 IU/L
- ALT (3 h): 42.4 IU/L
- AST (3 h): 81.8 IU/L
- CRE (3 h): 0.2 mg/dL
- DBIL (3 h): 0 mg/dL
- GLC (3 h): 183 mg/dL
- IP (3 h): 8.2 mg/dL
- K (3 h): 4 meq/L
- LDH (3 h): 274 IU/L
- Na (3 h): 142 meq/L
- PL (3 h): 130.4 mg/dL
- RALB (3 h): 3 g/dL
- TBIL (3 h): 0.018 mg/dL
- TC (3 h): 72.6 mg/dL
- TG (3 h): 51 mg/dL
- TP (3 h): 5.4 g/dL
- gamma-GTP (3 h): 1.2 IU/L
- TERMINAL_BW (6 h): 200 g
- Bas (6 h): 0%
- Eos (6 h): 0.8%
- Fbg (6 h): 288.8 mg/dL
- Hb (6 h): 13.6 g/dL
- Ht (6 h): 40%
- Lym (6 h): 82.2%
- MCH (6 h): 21.7 pg
- MCHC (6 h): 34%
- MCV (6 h): 63.8 fL
- Mono (6 h): 1.8%
- PT (6 h): 15.9 s
- Plat (6 h): 118.6 x10_4/uL
- RBC (6 h): 627 x10_4/ul
- Ret (6 h): 7.8%
- WBC (6 h): 96.9 x10_2/uL
- KIDNEY_L (6 h): 0.9 g
- KIDNEY_R (6 h): 0.9 g
- KIDNEY_TOTAL (6 h): 1.9 g
- LIVER (6 h): 8.8 g
- ALP (6 h): 1383.4 IU/L
- ALT (6 h): 39.6 IU/L
- AST (6 h): 75.4 IU/L
- CRE (6 h): 0.2 mg/dL
- DBIL (6 h): 0 mg/dL
- GLC (6 h): 178 mg/dL
- IP (6 h): 8.9 mg/dL
- K (6 h): 4.2 meq/L
- LDH (6 h): 236.2 IU/L
- Na (6 h): 140.6 meq/L
- PL (6 h): 132.2 mg/dL
- RALB (6 h): 2.9 g/dL
- TBIL (6 h): 0.028 mg/dL
- TC (6 h): 73.2 mg/dL
- TG (6 h): 69.8 mg/dL
- TP (6 h): 5.4 g/dL
- gamma-GTP (6 h): 1.2 IU/L
- TERMINAL_BW (9 h): 198.1 g
- APTT (9 h): 23.4 s
- Bas (9 h): 0%
- Eos (9 h): 0.6%
- Fbg (9 h): 287 mg/dL
- Hb (9 h): 13 g/dL
- Ht (9 h): 38.7%
- Lym (9 h): 79.6%
- MCH (9 h): 21.6 pg
- MCHC (9 h): 33.8%
- MCV (9 h): 64 fL
- Mono (9 h): 1.8%
- Neu (9 h): 17%
- PT (9 h): 15.9 s
- Plat (9 h): 125.1 x10_4/uL
- RBC (9 h): 604.6 x10_4/ul
- Ret (9 h): 7.4%
- WBC (9 h): 76.6 x10_2/uL
- KIDNEY_L (9 h): 0.9 g
- KIDNEY_R (9 h): 0.9 g
- KIDNEY_TOTAL (9 h): 1.8 g
- LIVER (9 h): 8.2 g
- ALP (9 h): 1448.2 IU/L
- ALT (9 h): 36.6 IU/L
- AST (9 h): 73.2 IU/L
- CRE (9 h): 0.2 mg/dL
- DBIL (9 h): 0.006 mg/dL
- GLC (9 h): 178 mg/dL
- IP (9 h): 9.6 mg/dL
- K (9 h): 4.1 meq/L
- Na (9 h): 141.4 meq/L
- PL (9 h): 130.4 mg/dL
- RALB (9 h): 2.9 g/dL
- TBIL (9 h): 0.026 mg/dL
- TC (9 h): 72.8 mg/dL
- TG (9 h): 54.4 mg/dL
- TP (9 h): 5.5 g/dL
- gamma-GTP (9 h): 1.2 IU/L
- TERMINAL_BW (24 h): 213.6 g
- APTT (24 h): 20.3 s
- Bas (24 h): 0%
- Eos (24 h): 1.2%
- Fbg (24 h): 306 mg/dL
- Hb (24 h): 13.1 g/dL
- Ht (24 h): 38.6%
- Lym (24 h): 79.8%
- MCH (24 h): 21.4 pg
- MCHC (24 h): 33.8%
- MCV (24 h): 63.5 fL
- Mono (24 h): 3.2%
- Neu (24 h): 15.2%
- PT (24 h): 16.5 s
- Plat (24 h): 124.1 x10_4/uL
- RBC (24 h): 609.8 x10_4/ul
- Ret (24 h): 7.4%
- WBC (24 h): 117.7 x10_2/uL
- KIDNEY_L (24 h): 0.9 g
- KIDNEY_R (24 h): 0.9 g
- KIDNEY_TOTAL (24 h): 1.8 g
- LIVER (24 h): 10.1 g
- ALP (24 h): 1790.4 IU/L
- ALT (24 h): 47.2 IU/L
- AST (24 h): 77.2 IU/L
- CRE (24 h): 0.2 mg/dL
- DBIL (24 h): 0 mg/dL
- GLC (24 h): 198.8 mg/dL
- IP (24 h): 7.3 mg/dL
- K (24 h): 4.5 meq/L
- LDH (24 h): 235.4 IU/L
- Na (24 h): 141.6 meq/L
- PL (24 h): 145.8 mg/dL
- RALB (24 h): 3.1 g/dL
- TBIL (24 h): 0 mg/dL
